Organism: Rattus norvegicus
Assay: Open TG-GATES - Regimen: Daily Repeat
Assay type: toxicity, organism-based, Sprague-Dawley
Design: regimen Daily Repeat, gender Male, age 6 weeks
Conditions: in vivo, po, route gavage; for A/G / ALP / ALT / AST / BUN / CRE / Ca / Cl / DBIL / GLC / IP / K / LDH / Na / PL / RALB / TBIL / TC / TG / TP / gamma-GTP: tissue Plasma; for APTT / Bas / Eos / Fbg / Hb / Ht / Lym / MCH / MCHC / MCV / Mono / Neu / PT / Plat / RBC / Ret / WBC: tissue Blood; for KIDNEY_L / KIDNEY_R / KIDNEY_TOTAL: tissue Kidney; for LIVER: tissue Liver
[1] = 0 mg/kg, […], dose level Control, time 28 day
[2] = 3 mg/kg, 72 h, dose level Low, time 3 day
[3] = 3 mg/kg, […], dose level Low, time 7 day
[4] = 3 mg/kg, […], dose level Low, time 14 day
[5] = 3 mg/kg, […], dose level Low, time 28 day

## C[C@H]1C(=O)O[C@@H]2CCN3CC=C(COC(=O)[C@](C)(O)[C@]1(C)O)[C@H]23 [MONOCROTALINE]
[1]
  A/G: 1.1
  ALP: 1093.2 IU/L
  ALT: 53 IU/L
  AST: 79.6 IU/L
  BUN: 18.8 mg/dL
  CRE: 0.2 mg/dL
  Ca: 10.6 mg/dL
  Cl: 106.8 meq/L
  DBIL: 0 mg/dL
  GLC: 190.2 mg/dL
  IP: 6.3 mg/dL
  K: 4.1 meq/L
  LDH: 176.4 IU/L
  Na: 141.8 meq/L
  PL: 152.6 mg/dL
  RALB: 3.2 g/dL
  TBIL: 0.01 mg/dL
  TC: 74 mg/dL
  TG: 160.4 mg/dL
  TP: 6 g/dL
  gamma-GTP: 1 IU/L
[2]
  TERMINAL_BW: 234.1 g
  APTT: 21.2 s
  Bas: 0%
  Eos: 0.8%
  Fbg: 311.8 mg/dL
  Hb: 13.5 g/dL
  Ht: 39.5%
  Lym: 80.2%
  MCH: 20.8 pg
  MCHC: 34%
  MCV: 61.2 fL
  Mono: 2%
  Neu: 16.2%
  PT: 15.9 s
  Plat: 130.1 x10_4/uL
  RBC: 646.2 x10_4/ul
  Ret: 7.1%
  WBC: 122.6 x10_2/uL
  KIDNEY_L: 1 g
  KIDNEY_R: 1 g
  KIDNEY_TOTAL: 2 g
  LIVER: 10.8 g
  A/G: 1.2
  ALP: 1957.6 IU/L
  ALT: 43.6 IU/L
  AST: 74.6 IU/L
  BUN: 16.4 mg/dL
  CRE: 0.1 mg/dL
  Ca: 10.7 mg/dL
  Cl: 106 meq/L
  DBIL: 0.002 mg/dL
  GLC: 187.2 mg/dL
  IP: 6.9 mg/dL
  K: 4.4 meq/L
  LDH: 267.2 IU/L
  Na: 142.8 meq/L
  PL: 154 mg/dL
  RALB: 3.2 g/dL
  TBIL: 0.014 mg/dL
  TC: 83.8 mg/dL
  TG: 104 mg/dL
  TP: 5.7 g/dL
  gamma-GTP: 1.2 IU/L
[3]
  TERMINAL_BW: 266.3 g
  APTT: 22.4 s
  Bas: 0%
  Eos: 0.8%
  Fbg: 328.2 mg/dL
  Hb: 13.9 g/dL
  Ht: 39.9%
  Lym: 80.4%
  MCH: 21.1 pg
  MCHC: 34.8%
  MCV: 60.5 fL
  Mono: 2.4%
  Neu: 15.2%
  PT: 16.2 s
  Plat: 119.7 x10_4/uL
  RBC: 659.4 x10_4/ul
  Ret: 5.7%
  WBC: 105.4 x10_2/uL
  KIDNEY_L: 1.1 g
  KIDNEY_R: 1.2 g
  KIDNEY_TOTAL: 2.3 g
  LIVER: 12.4 g
  A/G: 1.1
  ALP: 1693.8 IU/L
  ALT: 43.2 IU/L
  AST: 75 IU/L
  BUN: 17 mg/dL
  CRE: 0.2 mg/dL
  Ca: 10.7 mg/dL
  Cl: 105.6 meq/L
  DBIL: 0 mg/dL
  GLC: 187 mg/dL
  IP: 7 mg/dL
  K: 4.2 meq/L
  LDH: 248 IU/L
  Na: 142.6 meq/L
  PL: 151.6 mg/dL
  RALB: 3.1 g/dL
  TBIL: 0.008 mg/dL
  TC: 80.8 mg/dL
  TG: 121.8 mg/dL
  TP: 5.8 g/dL
  gamma-GTP: 1.2 IU/L
[4]
  TERMINAL_BW: 294.8 g
  APTT: 20.2 s
  Bas: 0%
  Eos: 0.4%
  Fbg: 413 mg/dL
  Hb: 14.3 g/dL
  Ht: 40.6%
  Lym: 81.6%
  MCH: 20.1 pg
  MCHC: 35%
  MCV: 57.4 fL
  Mono: 3.8%
  Neu: 12.8%
  PT: 16 s
  Plat: 120.5 x10_4/uL
  RBC: 708 x10_4/ul
  Ret: 3.3%
  WBC: 187.2 x10_2/uL
  KIDNEY_L: 1.2 g
  KIDNEY_R: 1.2 g
  KIDNEY_TOTAL: 2.4 g
  LIVER: 13.6 g
  A/G: 1
[5]
  TERMINAL_BW: 359.6 g
  APTT: 23 s
  Bas: 0%
  Eos: 0.8%
  Fbg: 332.8 mg/dL
  Hb: 14.1 g/dL
  Ht: 40.2%
  Lym: 84.2%
  MCH: 19 pg
  MCHC: 35.1%
  MCV: 54 fL
  Mono: 1.8%
  Neu: 12.4%
  PT: 15.4 s
  Plat: 102.5 x10_4/uL
  RBC: 745.6 x10_4/ul
  Ret: 4.2%
  WBC: 146.6 x10_2/uL
  KIDNEY_L: 1.3 g
  KIDNEY_R: 1.3 g
  KIDNEY_TOTAL: 2.6 g
  LIVER: 17.2 g

From ChEMBL document CHEMBL3885861, “Open TG-GATES”
